Results published in patent publication US9057727B2, “Screening methods using G-protein coupled receptors and related compositions” (The General Hospital Corporation, priority 2007, dated 2015).
Read-outs that look alike come from different tables or passages of the source. Ends that are not written are not given here. Peptide text beside a SMILES is read from it.

Assays:
[1] = target: T1, human PTH receptor (Homo sapiens, UniProt Q03431); assay: cAMP in HRKRK-B7 cells EC50 (nM)
T1 construct: expressed in transfected cells
Source text: Table printed on a drawing sheet, Figure 25
Head of the field: cAMP in HRKRK-B7 cells EC50 (nM)
First copying reader's note: The column head prints the cell line as HRKRK-B7 while the title prints HKRK-B7.

[2] = Calcemic action in normal rats (blood ionized calcium); type: in vivo
Description: Binding to the rat PTHR was also measured in vitro.
Concentration of peptides in stock solution were adjusted by dilution with 25 mmol/L phosphate-citrate buffer/100 mmol/L NaCl/0.05% Tween 80 (pH. 5.0) (PC-buffer). All peptides were allowed to stand on ice immediately before administration.
Female SD-IGS rat at 8 weeks of age (Charles River Japan, Inc.) were measured for their body weight. Blood was collected by tail vein into heparinized capillary tubes and measured for baseline levels of blood ionized calcium and pH using Ca^++/pH analyzer (Model 634/Bayer Medical Ltd.) to give the corrected level of ionized calcium at pH 7.4 for each sample. Rats received intravenous administration of each peptides at a dose of 1 ml/kg. Peptides were administered to groups of 6 rats each respectively. At 1, 2, 4, or 6 hours after administration, blood was collected by tail vein to monitor the time course of corrected blood ionized calcium levels. The time course of changes in corrected ionized calcium levels, compared to vehicle, and are expressed as means+/−standard error.

[3] = target: T2, human PTHR, G protein-coupled conformation (RG) (Homo sapiens, UniProt Q03431); assay: Competition binding to RG conformation of hPTHR (COS-7 membranes, GαsND, 125I-[Aib1,3,M]PTH(1-15) tracer); conditions: for screen human PIR RG (% parent): parent PTHrP(1-28)NH
T2 construct: expressed in transfected cells; host or cells: COS-7, transient (Fugene-6); membranes
T2 sequence (Q03431 27-593): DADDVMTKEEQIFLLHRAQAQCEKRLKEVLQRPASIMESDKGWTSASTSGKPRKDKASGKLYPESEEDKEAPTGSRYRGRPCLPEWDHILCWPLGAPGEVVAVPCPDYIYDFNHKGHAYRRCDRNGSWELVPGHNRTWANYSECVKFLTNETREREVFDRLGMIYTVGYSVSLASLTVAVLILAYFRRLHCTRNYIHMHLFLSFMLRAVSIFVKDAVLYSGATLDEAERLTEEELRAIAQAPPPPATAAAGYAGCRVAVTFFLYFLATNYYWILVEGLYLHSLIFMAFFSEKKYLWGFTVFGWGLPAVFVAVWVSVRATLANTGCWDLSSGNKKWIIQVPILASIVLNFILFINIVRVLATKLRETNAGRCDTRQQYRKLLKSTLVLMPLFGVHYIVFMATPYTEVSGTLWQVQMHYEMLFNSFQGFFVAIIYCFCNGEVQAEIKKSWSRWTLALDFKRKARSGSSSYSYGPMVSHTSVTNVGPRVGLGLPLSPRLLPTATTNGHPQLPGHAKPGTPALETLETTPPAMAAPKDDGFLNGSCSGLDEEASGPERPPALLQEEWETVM

[4] = system: MC3T3-E1 cells; assay: cAMP in MC3T3-E1 cells, dose-response; type: cell-based
Description: In the 1-30 scaffold, Gly, Ser, Leu, Asn, Gln, Trp, Glu, and Lys were substituted at position 29; Gly, Ser, Leu, Asn, Asp, Trp, and Lys were substituted at position 30; and Ser, Leu, Asn, Val, Trp, Glu, and Lys were substituted at position 31. […] These peptides were tested for cAMP activity in MC3T3-E1 cells.

[5] = system: SaOS cells; assay: cAMP production in SaOS cells, dose-response; type: cell-based
[6] = target: T3, human PTHR, G protein-uncoupled conformation (R^0) (Homo sapiens, UniProt Q03431); assay: Competition binding to R0 conformation of hPTHR (COS-7 membranes, GTPγS, 125I-PTH(1-34) tracer); conditions: for IC50: read-out: R^0 binding affinity hPTHR IC50; for screen human PIR R0 (% parent): parent PTHrP(1-28)NH
T3 construct: expressed in transfected cells; host or cells: COS-7, transient (Fugene-6)
T3 sequence (Q03431 27-593): T2 sequence (Q03431 27-593)
Summary of the method: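 Membranes from hPTHR-transfected COS-7 cells (20-100 μg/mL protein) incubated 90 min with radioligand (~150,000 cpm/ml) and unlabeled ligands, then filtered. Specific binding expressed as % of binding without competitor.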

[7] = system: LLCPK1-B64 cells or SaOS-2 cells; assay: cAMP screen of substituted PTHrP(1-28) analogs (% parent); type: cell-based; conditions: parent PTHrP(1-28)NH
Summary of the method: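 LLCPK1-B64 or SaOS-2 cells exposed to peptide analogs at 3×10^−9M with IBMX for 30 minutes at room temperature, then cAMP measured. Each analog's response expressed as percentage of that for parent PTHrP(1-28).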

[8] = Table 2, read-out: RG binding affinity hPTHR IC50
[9] = Table 2, read-out: MC3T3-E1 cAMP EC50
[10] = Table 3, read-out: dose-response cAMP in MC3T3-E1 (EC50)
[11] = Table 2, read-out: SaOS camp EC50
[12] = Table 3, read-out: dose-response cAMP in SaOS (EC50)

CC[C@H](C)[C@H](NC(=O)[C@H](CCC(=O)O)NC(=O)[C@H](C)NC(=O)[C@@H](NC(=O)[C@H](Cc1c[nH]cn1)NC(=O)[C@@H](NC(=O)[C@H](CCC(=O)O)NC(=O)[C@H](C)NC(=O)[C@@H](NC(=O)[C@H](CC(C)C)NC(=O)[C@H](Cc1c[nH]cn1)NC(=O)[C@H](Cc1c[nH]cn1)NC(=O)[C@H](CC(C)C)NC(=O)[C@H](Cc1ccccc1)NC(=O)[C@H](Cc1ccccc1)NC(=O)[C@H](CCCNC(=N)N)NC(=O)[C@H](CCCNC(=N)N)NC(=O)[C@H](CCCNC(=N)N)NC(=O)[C@H](CC(C)C)NC(=O)[C@H](CC(=O)O)NC(=O)[C@H](CCC(N)=O)NC(=O)[C@@H](NC(=O)[C@H](Cc1c[nH]cn1)NC(=O)[C@H](CCCCN)NC(=O)CNC(=O)[C@H](CC(C)C)NC(=O)[C@H](CC(N)=O)NC(=O)[C@H](Cc1c[nH]cn1)NC(=O)[C@H](CCSC)NC(=O)[C@H](CC(C)C)NC(=O)[C@H](CCC(N)=O)NC(=O)[C@@H](NC(=O)[C@H](CCC(=O)O)NC(=O)[C@H](CO)NC(=O)[C@@H](NC(=O)[C@@H](N)CO)C(C)C)[C@@H](C)CC)[C@@H](C)CC)[C@@H](C)CC)[C@@H](C)CC)[C@@H](C)O)C(=O)O [PTH(1-14)/PTHrP(15-36), hPTH(1-14)/PTHrP(15-36)] (H-SVSEIQLMHNLGKHIQDLRRRFFLHHLIAEIHTAEI-OH)
EC50 [1]: 1.35 nM
calcemic action compared with control peptides, in words ([2]; normal and TPTX rats): higher calcemic actions than did PTH(1-34)

CC[C@H](C)[C@H](NC(=O)[C@H](CC(C)C)NC(=O)[C@H](CCCCN)NC(=O)[C@H](Cc1c[nH]cn1)NC(=O)[C@H](CC(C)C)NC(=O)[C@H](Cc1ccccc1)NC(=O)[C@H](C)NC(=O)[C@H](CCCNC(=N)N)NC(=O)[C@H](CCCNC(=N)N)NC(=O)[C@H](CCCNC(=N)N)NC(=O)[C@H](C)NC(=O)[C@H](CC(=O)O)NC(=O)[C@H](CCC(N)=O)NC(=O)[C@@H](NC(=O)[C@H](CO)NC(=O)[C@H](CCCCN)NC(=O)CNC(=O)[C@H](CCCCN)NC(=O)[C@H](CC(=O)O)NC(=O)[C@H](Cc1c[nH]cn1)NC(=O)[C@H](CC(C)C)NC(=O)[C@H](CC(C)C)NC(=O)[C@H](CCC(N)=O)NC(=O)[C@H](Cc1c[nH]cn1)NC(=O)[C@H](CCC(=O)O)NC(=O)[C@H](CO)NC(=O)[C@@H](NC(=O)[C@H](C)N)C(C)C)[C@@H](C)CC)C(N)=O [A18, 22, K26-PTHrP(1-28)NH, A18,22,K26-PTHrP(1-28)] (H-AVSEHQLLHDKGKSIQDARRRAFLHKLI-NH2; N-terminus assumed)
IC50 [3, 8]: 0.1 nM
screen human PIR RG (% parent) [3]: 193 % parent
EC50 [4, 9]: 0.091 nM
EC50 [4, 10]: 0.091 nM
EC50 [5, 11]: 0.024 nM
EC50 [5, 12]: 0.024 nM
R0/RG selectivity ([6]; Table 2, hPTHR): 18079
IC50 ([6]; Table 2): 1810 nM
screen human PIR R0 (% parent) [6]: 178 % parent
screen cAMP (% parent) [7]: 405 % parent

CC[C@H](C)[C@H](NC(=O)[C@H](CC(C)C)NC(=O)[C@H](CCCCN)NC(=O)[C@H](Cc1c[nH]cn1)NC(=O)[C@H](CC(C)C)NC(=O)[C@H](Cc1ccccc1)NC(=O)[C@H](C)NC(=O)[C@H](CCCNC(=N)N)NC(=O)[C@H](CCCNC(=N)N)NC(=O)[C@H](CCCNC(=N)N)NC(=O)[C@H](CCC(=O)O)NC(=O)[C@H](CC(=O)O)NC(=O)[C@H](CCC(N)=O)NC(=O)[C@@H](NC(=O)[C@H](CO)NC(=O)[C@H](CCCCN)NC(=O)CNC(=O)[C@H](CCCCN)NC(=O)[C@H](CC(=O)O)NC(=O)[C@H](Cc1c[nH]cn1)NC(=O)[C@H](CC(C)C)NC(=O)[C@H](CC(C)C)NC(=O)[C@H](CCC(N)=O)NC(=O)[C@H](Cc1c[nH]cn1)NC(=O)[C@H](CCC(=O)O)NC(=O)[C@H](CO)NC(=O)[C@@H](NC(=O)[C@H](C)N)C(C)C)[C@@H](C)CC)C(N)=O [E18, A22, K26-PTHrP(1-28)NH, E18,A22,K26-PTHrP(1-28)] (H-AVSEHQLLHDKGKSIQDERRRAFLHKLI-NH2; N-terminus assumed)
screen human PIR RG (% parent) [3]: 145 % parent
EC50 [4, 9]: 0.251 nM
EC50 [4, 10]: 0.251 nM
EC50 [5, 11]: 0.241 nM
EC50 [5, 12]: 0.241 nM
IC50 ([6]; Table 2): 9240 nM
screen human PIR R0 (% parent) [6]: 68.8 % parent
screen cAMP (% parent) [7]: 301 % parent

AVSEHQLLHDKGKSIQDARRRSFLHKLI [A18, S22, K26-PTHrP(1-28)NH, A18,S22,K26-PTHrP(1-28)]
screen human PIR RG (% parent) [3]: 175 % parent
EC50 [5, 12]: 0.038 nM
screen human PIR R0 (% parent) [6]: 155 % parent
screen cAMP (% parent) [7]: 372 % parent

CC[C@H](C)[C@H](NC(=O)[C@H](CC(C)C)NC(=O)[C@H](CCCCN)NC(=O)[C@H](CC(C)C)NC(=O)[C@H](CC(C)C)NC(=O)[C@H](Cc1ccccc1)NC(=O)[C@H](CO)NC(=O)[C@H](CCCNC(=N)N)NC(=O)[C@H](CCCNC(=N)N)NC(=O)[C@H](CCCNC(=N)N)NC(=O)[C@H](C)NC(=O)[C@H](CC(=O)O)NC(=O)[C@H](CCC(N)=O)NC(=O)[C@@H](NC(=O)[C@H](CO)NC(=O)[C@H](CCCCN)NC(=O)CNC(=O)[C@H](CCCCN)NC(=O)[C@H](CC(=O)O)NC(=O)[C@H](Cc1c[nH]cn1)NC(=O)[C@H](CC(C)C)NC(=O)[C@H](CC(C)C)NC(=O)[C@H](CCC(N)=O)NC(=O)[C@H](Cc1c[nH]cn1)NC(=O)[C@H](CCC(=O)O)NC(=O)[C@H](CO)NC(=O)[C@@H](NC(=O)[C@H](C)N)C(C)C)[C@@H](C)CC)C(N)=O [A18, S22, L25, K26-PTHrP(1-28)NH, A18,S22,L25,K26-PTHrP(1-28)] (H-AVSEHQLLHDKGKSIQDARRRSFLLKLI-NH2; N-terminus assumed)
IC50 ([3]; Table 3, read-out: dose-response human PIR RG (IC50 nM)): 0.1 nM
EC50 [5, 12]: 0.009 nM
screen cAMP (% parent) [7]: 367 % parent

AVAEIQLMHQRGKSIQDLRRRFFLHHLIAEIHTAEI (AVAEIQLMHQRGKSIQDLRRRFFLHHLIAEIHTAEI-OH) [Mc-PTH(1-11)/PTHrP(15-36)]
calcemic action (blood ionized calcium), in words ([2]; normal rats, i.v.): Prolonged calcemic effects

CC[C@H](C)[C@H](NC(=O)[C@H](CC(C)C)NC(=O)[C@H](CCCCN)NC(=O)[C@H](CC(C)C)NC(=O)[C@H](CC(C)C)NC(=O)[C@H](Cc1ccccc1)NC(=O)[C@H](C)NC(=O)[C@H](CCCNC(=N)N)NC(=O)[C@H](CCCNC(=N)N)NC(=O)[C@H](CCCNC(=N)N)NC(=O)[C@H](C)NC(=O)[C@H](CC(=O)O)NC(=O)[C@H](CCC(N)=O)NC(=O)[C@@H](NC(=O)[C@H](CO)NC(=O)[C@H](CCCCN)NC(=O)CNC(=O)[C@H](CCCCN)NC(=O)[C@H](CC(=O)O)NC(=O)[C@H](Cc1c[nH]cn1)NC(=O)[C@H](CC(C)C)NC(=O)[C@H](CC(C)C)NC(=O)[C@H](CCC(N)=O)NC(=O)[C@H](Cc1c[nH]cn1)NC(=O)[C@H](CCC(=O)O)NC(=O)[C@H](CO)NC(=O)[C@@H](NC(=O)[C@H](C)N)C(C)C)[C@@H](C)CC)C(=O)N[C@@H](C)C(=O)N[C@@H](CCC(=O)O)C(N)=O [A18, 22, L25, K26-PTHrP(1-30)NH, A18,22,L25,K26-PTHrP(1-30)]
IC50 [3, 8]: 0.05 nM
EC50 [4, 9]: 0.067 nM
EC50 [4, 10]: 0.067 nM
EC50 [5, 11]: 0.008 nM
IC50 ([6]; Table 2): 144 nM
